In data set [1] the target is T1, human vasopressin receptor V2R (Homo sapiens, UniProt P30518).
T1 construct: host or cells: HeLa (lentivirus infection, puromycin selection)
As to the kind of experiment: Inhibition of vasopressin-induced activation of V2R (cAMP HTRF in HeLa-V2R cells). The format is cell-based. The following applies: AVP 2.25 nM, read-out: IC50, inhibition of cAMP increase in human cervical cancer cells (Human V2R Hela-Stable cell line OE2). Here is the method: HeLa-V2R cells were incubated with DMEM medium supplemented with 10% fetal bovine serum under the condition of 37° C. and 5% CO2, and the medium was added with 2 μg/mL puromycin to continuously screen cells expressing V2R. On the day of the experiment, the cells were digested with trypsin, washed twice with the stimulation buffer in the cAMP-GS HIRANGE kit, resuspended, and counted to prepare 1.6×10^6 cells/mL, and IBMX was added until a final concentration of 0.5 mM. 5 μL of cell suspension/well was transferred to a 384-well plate. To the corresponding wells were added 2.5 μL of various concentrations of the test compounds (3-fold dilution from 10 μM, 10 concentration gradients) or DMSO (minimum value Min, maximum value Max as a control), respectively. […]. At the same time, cAMP standard samples (3-fold dilution from 5.6 μM, 10 concentration points) were prepared, and 10 μL of cAMP standard samples were transferred to corresponding wells of a 384-well plate. The cAMP-d2 fluorescence and anti-cAMP antibody probes provided in the kit were 20-fold diluted by the lysis buffer in the cAMP-GS HIRANGE kit. To each well of a 384-well plate was sequentially added 5 μL of each diluted reagent. The above mixture in each well was mixed well, centrifuged briefly, incubated at 25° C. for 2 hours, and tested. The sample was tested by the HTRF method with the Envision microplate reader to determine the fluorescence intensity at 615 nm and 665 nm. Each test sample was tested in duplicate, with 32 replicates for both Min and Max, respectively.
The fluorescence intensity ratio FI665/615 at the wavelength of 665 nm and 615 nm of the samples in each well was calculated. The logarithm of the concentration of the standard was taken as X, and FI665/615×1000 as the Y value, and the standard curve was obtained by fitting the “log(inhibitor) vs response-variable slope (four parameters)” model in Prism 8.0 software. FI665/615×1000 of the test well was taken as the Y value, and the cAMP concentration corresponding to each sample was calculated in the Prism 8.0 software according to the above standard curve.
% Inhibition (inhibition percentage) calculation formula is as follows: % inhibition=(Cmax−Ccmpd)/(Cmax−Cmin)×100
wherein Cmax is the average calculated value of cAMP concentration in all maximum wells; Cmin is the average calculated value of cAMP concentration in all minimum wells; Ccmpd is the calculated value of cAMP concentration of the test compound.
% Inhibition (inhibition percentage) was taken as the Y value, and the logarithmic value of the compound concentration was taken as the X value, and the IC50 was calculated by nonlinear regression with “log(inhibitor) vs response-variable slope (four parameters)” model in Prism 8.0 software, wherein Y=Bottom+(Top−Bottom)/(1+10^((Log IC50−X)×Hill Slope)).
(In general: TR-FRET usually uses a lanthanide donor and a delayed reading to cut background.)

The next data set relates to LLC-PK1 cells. Kind of data set: AVP-induced LLC-PK1 cell proliferation assay. The format is cell-based, Porcine. Also noted: Proliferation inhibition grading, Repeated experiment I / Proliferation inhibition grading, Repeated experiment II: key to the marks not given beside the values. The following applies: for hook effect in AVP-induced LLC-PK1 cell proliferation: high concentration, up to 3 μM. Here is the method: Porcine renal epithelial cell LLC-PK1: purchased from ATCC, Cat #CL-101 The pathogenesis of polycystic kidney disease is related to the low intracellular calcium ion concentration of renal collecting duct epithelial cells and the cAMP-dependent excessive proliferation of cells. […] LLC-PK1 cells were incubated with M199 medium supplemented with 10% fetal bovine serum under the condition of 37° C. and 5% CO2. On the first day of the experiment, a 96-well plate was coated with 0.01% Poly-D-lysine, then each well of the plate was added with 100 μL of the above mixture. After standing at room temperature for 10 minutes, the mixture in each well was aspirated and air-dried at room temperature for 1 hour, and washed once with 200 μL 1×PBS for further use. LLC-PK1 cells were digested with trypsin, resuspended with serum-free M199 after centrifugation, counted, diluted into 1×10^5/mL cell suspension with serum-free M199 medium, and added with FBS until 1% final concentration. To a 96-well plate was transfered 200 μL of cell suspension/well. After the cells were incubated for 24 hours, the supernatant of the formulated solution was aspirated, and the cells were washed once with 200 μL of PBS. Then 160 μL of M199 medium containing 0.05% FBS and 20 μL of 10×Verapamil (final concentration of 5 μM) were sequentially added thereto, and the culture was continued for 24 hours. To the corresponding wells was respectively added 10 μL of various concentrations of the test compound (final concentration starting from 3 μM, 3-fold dilution, 8 concentration gradients) or DMSO (Min, and Max as a control) on the third day. […] On the fifth day, the culture medium was carefully aspirated. The cells were washed once with 200 μL of PBS. 90 μL of M199 serum-free medium was carefully added thereto, and then 10 μL of Alamarblue reagent was added thereto. The mixture was centrifuged at 300 rpm for 1 minute, incubated at 37° C. for 2 hours, and then tested. SpectraMax instrument was used for the sample test. The excitation light was 560 nm, and the emission light was 595 nm. Each test sample was tested in triplicate, with 6 replicates for both Min and Max, respectively. The concentration of the compound was taken as the X value, and the average value of the fluorescence intensity of each experimental well sample minus the fluorescence intensity of the background well was taken as the Y value, which represented the number of living cells in the well at the time of testing. The Grouped-Summary data-Separated bar graph in GraphPad Prism 8.0 software was used to make a bar chart for reflecting the dose-effect relationship of different compounds on AVP-induced cell proliferation. […] Data quality control: […]

Data set [2] can be described thus: In vivo pharmacokinetics in mice, oral administration. The following applies: male CD1 mice, oral 10 mg/kg. The procedure:
In this experimental example, in vivo pharmacokinetic evaluations were performed on mice by intravenous injection and oral administration.
Experimental methods and conditions: Male CD1 mice, 6 to 8 weeks old with free access to food and water, were administered by oral gavage with a dosage of 10 mg/kg (solvent 5% DMSO/10% Solutol/85% Saline). 15 minutes, 30 minutes, 1 hour, 2 hours, 4 hours, 8 hours, 10 hours, 24 hours after administration, blood samples were collected. Each sample was collected in a volume of 150 μL and anticoagulated with heparin sodium, placed on ice after collection, and centrifuged within 1 hour to separate the test plasma. The plasma concentration in plasma was tested by liquid chromatography-tandem mass spectrometry (LC/MS/MS), and pharmacokinetic parameters were calculated using Phoenix WinNonlin software via the measured concentration.

In the next data set the target is T2, human V1bR (Homo sapiens, UniProt P47901).
T2 construct: purchased Perkinelmer, USA
T2 sequence (P47901 1-424): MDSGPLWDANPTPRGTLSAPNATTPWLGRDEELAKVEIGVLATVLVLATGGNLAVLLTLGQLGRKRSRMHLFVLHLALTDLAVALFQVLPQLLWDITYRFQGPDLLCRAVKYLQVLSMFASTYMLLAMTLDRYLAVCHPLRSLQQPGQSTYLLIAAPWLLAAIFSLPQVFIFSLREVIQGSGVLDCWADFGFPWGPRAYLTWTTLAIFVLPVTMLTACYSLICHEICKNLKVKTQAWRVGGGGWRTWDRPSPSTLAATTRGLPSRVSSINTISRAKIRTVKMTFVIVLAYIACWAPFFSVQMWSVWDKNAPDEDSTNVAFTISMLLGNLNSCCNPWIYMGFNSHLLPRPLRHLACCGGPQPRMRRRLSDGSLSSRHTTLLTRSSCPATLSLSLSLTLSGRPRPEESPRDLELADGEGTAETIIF
As to the kind of experiment: Competitive isotope ligand binding, V1b receptor. The procedure: The cells with high expression of human V1a receptor were amplified, collected, washed twice with PBS, resuspended with PBS containing a protease inhibitor, homogenized with a homogenizer at 15000 r/min to break the cells, and centrifuged at 4° C. and 3000 r/min for 15 minutes. The supernatant was collected, centrifuged at 20,000 r/min at 4° C. for 45 minutes. Then the supernatant was discarded to obtain a cell membrane precipitation. Buffer was added to resuspend to measure the protein concentration, aliquoted, and stored at −80° C. The cell membranes of highly expressed human V1b and V2 receptors were purchased from Perkinelmer, USA.
The stock solution of the test compound and that of the positive control were diluted to 1 mM (10-fold dilution) and 0.1 mM (100-fold dilution) with DMSO, respectively, and then sequentially subjected to a four-fold dilution with DMSO to the tenth point.
Cell membranes overexpressing human receptors were prepared with assay buffer to 5 mg/mL.
• 1. 1 μL of the compound was aspirated from the dilution plate into each well of the 96-well assay plate (the concentration of the test compound in the reaction would be diluted 100-fold). To the control well was added 1 μL of DMSO. • 2. 10 mL of membrane solution containing 5 μg/μL was prepared. • 3. To the compound assay plate was added the membrane solution from step 2 with a pipette, and each well was added with 89 μL of the membrane solution. • 4. […] The configured test plate was placed at 30° C. and incubated for 60 minutes. • 6. The membrane complexes were collected into 0.5% PEI pre-coated GF/B plate with Cell Harvester, washed 3 times with 2 mL of pre-cooled elution buffer at 4° C., and dried at 37° C. for 2 hours. • 7.
Y=Bottom+(Top−Bottom)/(1+10^((X−Log IC50))), wherein: Y is the reading value of the liquid scintillation counter, and X is the logarithmic value of the compound concentration.

Where [3] appears, read: LLC-PK1, AVP 10 nM, verapamil 5 μM, graded against Tolvaptan.

Like-named read-outs stand apart in the source and are kept apart here.

T1 sequence (P30518 whole entry): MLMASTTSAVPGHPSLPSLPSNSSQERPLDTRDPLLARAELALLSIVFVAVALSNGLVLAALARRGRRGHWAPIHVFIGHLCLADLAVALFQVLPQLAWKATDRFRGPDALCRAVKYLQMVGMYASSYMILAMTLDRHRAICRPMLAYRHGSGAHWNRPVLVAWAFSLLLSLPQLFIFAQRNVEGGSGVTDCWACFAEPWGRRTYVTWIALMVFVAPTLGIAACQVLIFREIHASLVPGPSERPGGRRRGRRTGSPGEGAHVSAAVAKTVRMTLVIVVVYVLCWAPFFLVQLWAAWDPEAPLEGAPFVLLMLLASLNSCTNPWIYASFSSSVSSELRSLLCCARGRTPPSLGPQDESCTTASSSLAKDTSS

Regarding `Cc1ccccc1C(=O)Nc1ccc(C(=O)N2CCC3CCOC3c3cc(Cl)ccc32)c(C)c1` (single isomer, unassigned) [Compound 4], the IC50 – broadly, the concentration needed to halve the response being measured – in data set [1] came out at 0.00745 µM.
Still for that read-out and setting: in the case of `Cc1ccccc1C(=O)Nc1ccc(C(=O)N2CCC3CCOC3c3cc(Cl)ccc32)c(C)c1` (single isomer, unassigned) [Compound 5] it was 0.0616 µM.
As for `Cc1ccccc1C(=O)Nc1ccc(C(=O)N2CCC3CCNC3c3cc(Cl)ccc32)c(C)c1` (stereo not drawn) [Compound 1], the “dose-response compared with Tolvaptan” value in the data set on LLC-PK1 cells (AVP-induced LLC-PK1 cell proliferation) is reported as “superior to that of Tolvaptan”. For the same compound, the “hook effect in AVP-induced LLC-PK1 cell proliferation” value in the data set with LLC-PK1 cells is “no hook effect”. For the same compound, the IC50 in data set [1] is 0.0147 µM.
For the compound `O=C(Nc1ccc(C(=O)N2CCC3CCNC3c3cc(Cl)ccc32)cn1)c1ccccc1C(F)(F)F` (stereo not drawn) [Compound 2], the IC50 in data set [1] stood at 0.0326 µM.
For the compound `CN1CCC2CCN(C(=O)c3ccc(NC(=O)c4ccccc4C(F)(F)F)nc3)c3ccc(Cl)cc3[C@H]21` (stereo partly drawn) [Compound 3A], the half-maximal inhibitory concentration (IC50) in data set [1] worked out at 0.0847 µM.
The same measure, in the same setting: in the case of `Cc1ccccc1C(=O)Nc1ccc(C(=O)N2CCC3COC3c3cc(Cl)ccc32)c(C)c1` (stereo not drawn) [Compound 6] it was 0.00385 µM.
Turning to `Cc1cc(NC(=O)c2ccccc2Cl)ccc1C(=O)N1CCC2CNC2c2cc(Cl)ccc21` (stereo not drawn) [Compound 7], the half-inhibitory concentration (IC50) in data set [1] came out at 0.0927 µM.
The same measure, in the same setting: under `O=C(Nc1ccc(C(=O)N2CCC3CCNC3c3cc(Cl)ccc32)cn1)c1ccccc1C(F)(F)F` (stereo not drawn) [Compound 8] stands 0.0695 µM.
`Cc1ccccc1C(=O)Nc1ccc(C(=O)N2CCCC(O)c3cc(Cl)ccc32)c(C)c1` (stereo not drawn) [Reference substance 1, Tolvaptan, reference compound]: in the data set with LLC-PK1 cells (setting [3]), the “Proliferation inhibition grading, Repeated experiment I” value is “++” and the “Proliferation inhibition grading, Repeated experiment II” value is listed as “++”. Moreover, the “hook effect in AVP-induced LLC-PK1 cell proliferation” value in the data set with LLC-PK1 cells is recorded as “high-concentration pro-proliferative hook effect”. This compound displayed a F in data set [2] of 44%. Moreover, in data set [2] (mouse, plasma), the AUC(0-inf) (usually the area under the concentration-time curve extrapolated to infinity) worked out at 1610 ng·h/mL, the concentration peaked (Cmax) at 1310 ng/mL and the half-life (commonly how long it takes for the measured level to halve) is 1.58 h. On human V1bR, this compound yielded a half-maximal inhibitory concentration (IC50) of more than 10 µM. Further, the Ki at human V1bR (read-out: Binding affinity V1bR, N = 1, isotope-labeled vasopressin […], experiment 1, bound printed in μM) was more than 10 µM. Further, the Ki at human V1bR (read-out: Binding affinity V1bR, N = 2, isotope-labeled vasopressin […], experiment 2, bound printed in μM) was more than 10 µM. On human V1bR (read-out: Binding affinity V1bR, summary of the two experiments), the Ki was more than 10 µM.
